“Also recorded” adds a separate entry of the source. Where two headings read alike, the source gives them in different places. Where no end group is shown, it is not given here.
What was measured:
[1] = molecular target: T1, Angiotensin-1-converting enzyme (ACE-1) (Homo sapiens, UniProt P12821); test: ACE-1 inhibition, ACE kit-WST 96-well colorimetric assay; assay type: biochemical; conditions: for Observed Bioactivity In Vitro (ACE-1): result in words; for % ACE-1 inhibition / inhibition at 1000 µg/mL: synthesised peptides assayed at 1 mg/mL, n = 3; for inhibition at 1000 µg/mL: read-out: % ACE-1 inhibition
T1 construct: purchased Tebu Bio (TebuBio Ltd., Peterborough, UK)
Description: The ACE-I inhibitory activity was determined using a 96 well plate bioassay supplied by Tebu-Bio (TebuBio Ltd., Peterborough, UK) in accordance with the manufacturers’ instructions. Briefly, the enzyme working solution and indicator working solution were prepared according to the manufacturer’s instructions. […] Blanks were included. 20 µL of the substrate buffer was added to each well, followed by 20 µL of the enzyme working solution to experimental wells and blank one wells. The plate was incubated at 37 °C for 1 h. After incubation, 200 µL indicator working solution was added to each well, and the plate was incubated at room temperature for 10 min. […] Absorbance was measured using a plate reader at 450 nm. For IC50 determination, the ACE kit-WST was also used.

ovine recombinant COX-1 = test: Cyclooxygenase inhibition, cell free assay (COX-1); assay type: biochemical; conditions: for COX-1 inhibition: assayed at 1 mg/mL, ovine recombinant COX-1
Description: (§1) In vitro assays to determine COX inhibition were performed using cell free assays as described previously. The synthesised peptides were incubated independently with ovine recombinant COX-1 (Cayman Chemicals, Hamburg, Germany) or human recombinant COX-2 (Cayman Chemicals, Hamburg, Germany). The assay was carried out in accordance with the manufacturer’s instructions. Resveratrol (Merck, Dublin, Ireland) was used as a positive control.

human recombinant COX-2 = test: Cyclooxygenase inhibition, cell free assay (COX-2); assay type: biochemical; conditions: for COX-2 inhibition: assayed at 1 mg/mL, human recombinant COX-2
Description: as §1

ACE-1 = conditions: cited from earlier work
Description: Limited studies exist concerning the use of Nannochloropsis sp. as a source of protein, protein hydrolysates or bioactive peptides. Recently, […] et al. […] Enzymatic treatment of biomass is a useful strategy for generation of bioactive peptide containing concentrates. […] These peptides were selected based on their Peptide Ranker scores and amino acid sequences. The ACE-1 and COX-1/COX-2 assays were performed as described previously described using commercially available kits from Cambridge BioSciences (Cambridge BioSciences, Cambridge, UK).

Escherichia coli DSM 301 = test: Modified agar well diffusion assay, E. coli; assay type: cell-based; conditions: 1 mg/mL in 30 µL well, 24 h
Description: (§2) The antibacterial activity of synthesised peptides was determined using an overnight culture of the pathogenic bacteria in a modified agar well diffusion assay as described previously. A zone of inhibition around wells containing the peptides indicates antibacterial activity. Escherichia coli DSM 301 and Bacillus cereus DSM 31 were used as indicator pathogen strains. Ampicillin (Merck, Dublin, Ireland) and Cecropin P1 (Merck, Dublin Ireland) were used as positive control antibiotics and antimicrobial peptides. Positive controls or test peptides were incubated (concentration 1 mg/mL) in a well (30 µL capacity) on the agar plate which was seeded with the pathogenic strain at an overnight culture to media ratio of 100 µL: 500 mL (v:v). Plates were left at 4 °C for 4 h and subsequently incubated at the optimum culture temperature and conditions for the pathogen in question. After 24 h, zones of inhibition indicated the presence of antibacterial activity.

Bacillus cereus DSM 31 = test: Modified agar well diffusion assay, B. cereus; assay type: cell-based; conditions: 1 mg/mL in 30 µL well, 24 h
Description: as §2

[2] = peptides from pepsin treated Nannochloropsis oculata

T1 sequence (P12821 30-1306): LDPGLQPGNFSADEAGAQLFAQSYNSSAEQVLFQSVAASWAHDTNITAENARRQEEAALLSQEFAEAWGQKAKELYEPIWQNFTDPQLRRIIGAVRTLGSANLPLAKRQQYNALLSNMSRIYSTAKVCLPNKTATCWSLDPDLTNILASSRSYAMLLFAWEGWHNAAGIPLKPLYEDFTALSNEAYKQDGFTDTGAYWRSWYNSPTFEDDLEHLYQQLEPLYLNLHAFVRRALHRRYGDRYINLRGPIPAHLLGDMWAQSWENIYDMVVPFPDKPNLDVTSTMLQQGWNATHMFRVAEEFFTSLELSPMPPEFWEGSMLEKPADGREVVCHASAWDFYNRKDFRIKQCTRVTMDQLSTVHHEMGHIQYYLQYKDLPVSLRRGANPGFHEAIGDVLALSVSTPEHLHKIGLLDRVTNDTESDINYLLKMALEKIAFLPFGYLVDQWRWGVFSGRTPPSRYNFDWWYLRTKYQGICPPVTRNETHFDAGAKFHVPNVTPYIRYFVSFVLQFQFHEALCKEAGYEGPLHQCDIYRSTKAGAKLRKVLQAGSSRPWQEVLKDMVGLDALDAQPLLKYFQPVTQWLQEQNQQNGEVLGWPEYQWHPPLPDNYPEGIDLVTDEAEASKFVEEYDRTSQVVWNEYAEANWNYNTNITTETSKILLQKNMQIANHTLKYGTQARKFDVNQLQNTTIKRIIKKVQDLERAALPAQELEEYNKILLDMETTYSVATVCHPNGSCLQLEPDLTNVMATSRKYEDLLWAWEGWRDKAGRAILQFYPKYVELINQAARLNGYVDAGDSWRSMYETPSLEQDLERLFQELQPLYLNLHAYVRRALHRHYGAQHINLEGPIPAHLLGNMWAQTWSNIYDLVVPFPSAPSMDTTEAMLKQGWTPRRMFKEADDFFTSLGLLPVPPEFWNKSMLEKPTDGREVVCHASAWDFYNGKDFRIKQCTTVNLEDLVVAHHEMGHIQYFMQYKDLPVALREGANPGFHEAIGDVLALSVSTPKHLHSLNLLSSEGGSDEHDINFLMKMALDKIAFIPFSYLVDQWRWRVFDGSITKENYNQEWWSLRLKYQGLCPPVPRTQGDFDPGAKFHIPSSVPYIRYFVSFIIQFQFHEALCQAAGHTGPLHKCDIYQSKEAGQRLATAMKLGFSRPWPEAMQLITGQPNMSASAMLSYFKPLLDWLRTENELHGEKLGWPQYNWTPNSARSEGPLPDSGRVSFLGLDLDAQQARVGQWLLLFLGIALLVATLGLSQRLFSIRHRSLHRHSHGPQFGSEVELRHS

Molecule: VVGAVGAADLL [peptide corresponding to HEAT repeat-containing protein 1 of Ectocarpus siliculosus, chemically synthesised]
- Observed Bioactivity In Vitro (ACE-1) [1]: ACE-1 inhibition
- % ACE-1 inhibition [1]: 25.73%

Molecule: KGGGSGANGGRL [peptide identified in Nannochloropsis sp. xylanase permeate, chemically synthesised; spelt three ways]
- % ACE-1 inhibition ([1]; listed as KGGGGGANGGRL): 35.81%

Molecule: YANDLLCMPI [peptide identified in Nannochloropsis sp. xylanase permeate, chemically synthesised]
- COX-1 inhibition (ovine recombinant COX-1): 34.5%
- Observed Bioactivity In Vitro (COX-1) (ovine recombinant COX-1; result in words): COX-1 and COX-2 inhibition
- COX-2 inhibition (human recombinant COX-2): 47.65%
- Observed Bioactivity In Vitro (COX-2) (human recombinant COX-2; result in words): COX-1 and COX-2 inhibition

Molecule: NKFPYTTQ [NKFPYTTQ]
- inhibition at 1000 µg/mL [1]: 76.8%

Molecule: LVGADAHALGVICS [peptide corresponding to a transcriptor initiation protein from Porphyridium sp., chemically synthesised]
- Observed Bioactivity In Vitro (ACE-1) [1]: ACE-1 inhibition

Molecule: Leu-Val-Thr-Val-Met
- IC50 (ACE-1; purified peptide from Alcalase hydrolysate): 18 µM

Molecule: AGDVGFDPLGF
- Observed Bioactivity In Vitro (ACE-1) [1]: ACE-1 inhibitory
- Antibacterial activity against E. coli (zone of inhibition) (Escherichia coli DSM 301): having antibacterial activity in vitro against E. coli; also recorded: produced a zone of inhibition; also recorded: Antibacterial activity against E. coli at a concentration of 1 mg/mL
- Antibacterial activity against B. cereus (zone of inhibition) (Bacillus cereus DSM 31): not B. cereus

Molecule: Leu-Glu-Gln [LEQ]
- IC50 (ACE-1; [2]): 173 µM

Molecule: VYNKFPYTTQ [VYNKFPYTTQ]
- inhibition at 1000 µg/mL [1]: 81.7%

Molecule: Oc1ccc(/C=C/c2cc(O)cc(O)c2)cc1 [Resveratrol, reference compound]
- COX-1 inhibition (ovine recombinant COX-1): 78.41 (±2.92) %
- COX-2 inhibition (human recombinant COX-2): 70.41%

Molecule: GMNNLTP [GMNNLTP]
- IC50 (ACE-1; [2]): 123 µM
